From patent US9636307B2, “Oral pharmaceutical composition comprising taste-masked N-acetylcysteine” (HERMES ARZNEIMITTEL GMBH, priority 2013, dated 2017)

Columns and labels:
[1] = Stability testing of N-acetylcysteine by headspace gas chromatography; assay type: physicochemical
[2] = Decomposition during processing of the material (sulphurous smell); assay type: physicochemical; settings: between about 40 and 48° C. compared to working at above 50° C.; evident by reduced sulphurous smell

sulphur species detectable by headspace gas chromatography ([1]; sample treated at 40° C. for 2 hours): no sulphur species are detectable
decomposition of N-acetylcysteine [2]: notably suppressed
SMILES: CC(=O)N[C@@H](CS)C(=O)O [N-acetylcysteine, N-acetyl-L-cysteine]
sulphur species detectable by headspace gas chromatography ([1]; sample subjected to 60° C. for 2 hours): two sulphurous species, acetyl mercaptane and s-ethyl ethanthioate, were detected
